One assay concerns the target T1, adenosine A2B receptor (Homo sapiens, UniProt P29275).
T1 sequence (P29275 1-332): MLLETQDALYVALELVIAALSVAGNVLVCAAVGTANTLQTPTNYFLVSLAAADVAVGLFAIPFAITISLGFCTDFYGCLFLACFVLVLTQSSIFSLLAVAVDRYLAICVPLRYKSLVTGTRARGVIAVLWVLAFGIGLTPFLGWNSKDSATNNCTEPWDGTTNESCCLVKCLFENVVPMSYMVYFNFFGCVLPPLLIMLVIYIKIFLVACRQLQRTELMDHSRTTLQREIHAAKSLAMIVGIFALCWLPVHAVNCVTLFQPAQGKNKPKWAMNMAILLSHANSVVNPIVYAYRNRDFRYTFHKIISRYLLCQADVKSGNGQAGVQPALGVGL
Type of assay: cell-based.

Another assay deals with adenosine A2A receptor (Homo sapiens, UniProt P29274). Type of assay: cell-based.
adenosine A2A receptor, sequence (P29274 whole entry): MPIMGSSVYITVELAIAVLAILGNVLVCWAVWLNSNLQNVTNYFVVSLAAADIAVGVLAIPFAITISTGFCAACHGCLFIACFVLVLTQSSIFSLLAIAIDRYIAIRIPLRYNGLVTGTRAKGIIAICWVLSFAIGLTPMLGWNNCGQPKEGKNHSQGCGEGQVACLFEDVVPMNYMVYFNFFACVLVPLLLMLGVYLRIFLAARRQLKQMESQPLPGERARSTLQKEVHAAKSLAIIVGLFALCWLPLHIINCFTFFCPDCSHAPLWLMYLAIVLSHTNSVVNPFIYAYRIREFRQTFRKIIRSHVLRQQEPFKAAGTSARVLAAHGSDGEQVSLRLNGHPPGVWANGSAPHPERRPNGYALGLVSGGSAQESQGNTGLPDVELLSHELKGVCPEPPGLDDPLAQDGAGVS

SMILES strings stand for the structures. pKi: −log10 of the molar value.

Consider 1 compound from publication PMC7979524 (Pharmacological research, 2021).

On to `COc1cc(/C=C\C(=O)CC(=O)/C=C/c2ccc(O)c(OC)c2)ccc1O` [CTCUR, cis-trans curcumin], for which the values for the pKi on adenosine A2B receptor and on adenosine A2A receptor were 5.17 and 5.29, respectively.
